The results in this text go back to patent publication US12685735B2 (Foghorn Therapeutics Inc., priority 2020, dated 2026).

For one assay, the target named is BRM (Homo sapiens, UniProt P51531). Description: ATPase catalytic activity assay of BRM (ADP-Glo). It counts as biochemical. The note with it: for IC50: read-out: BRM IC50 (μM)*. As for the experimental part: (§1) The ATPase catalytic activity of BRM or BRG-1 was measured by the in vitro biochemical assay using ADP-Glo™ (Promega, V9102). The ADP-Glo™ kinase assay is performed in two steps once the reaction is complete. The first step is to deplete any unconsumed ATP in the reaction. The second step is to convert the reaction product ADP to ATP, which will be utilized by the luciferase to generate luminesce and be detected by a luminescence reader, such as Envision.
(§2) Then following addition of 5 μL of ADP-Glo™ Reagent provided in the kit, the reaction incubates at room temperature for 40 minutes. Then 10 μL of Kinase Detection Reagent provided in the kit is added to convert ADP to ATP, and the reaction incubates at room temperature for 60 minutes. Finally, luminescence measurement is collected with a plate-reading luminometer, such as Envision.
(§3) The ADP-Glo™ kinase assay is performed in two steps once the reaction is complete. The first step is to deplete any unconsumed ATP in the reaction. The second step is to convert the reaction product ADP to ATP, which will be utilized by the luciferase to generate luminesce and be detected by a luminescence reader, such as Envision.
(ADP-Glo first removes unused ATP, then detects ADP through luciferase.)

The next assay deals with BRG-1 (Homo sapiens, UniProt P51532). Kind of assay: ATPase catalytic activity assay of BRG-1 (ADP-Glo). It counts as biochemical. The note with it: ATPase catalytic activity, ADP-Glo; for IC50: read-out: BRG1 IC50 (μM)*; for Emax: read-out: BRG1 Max % Inhibition. As for the experimental part: as §1, §2, §3

Read-outs that look alike come from different tables or passages of the source.

BRM, sequence (P51531 whole entry): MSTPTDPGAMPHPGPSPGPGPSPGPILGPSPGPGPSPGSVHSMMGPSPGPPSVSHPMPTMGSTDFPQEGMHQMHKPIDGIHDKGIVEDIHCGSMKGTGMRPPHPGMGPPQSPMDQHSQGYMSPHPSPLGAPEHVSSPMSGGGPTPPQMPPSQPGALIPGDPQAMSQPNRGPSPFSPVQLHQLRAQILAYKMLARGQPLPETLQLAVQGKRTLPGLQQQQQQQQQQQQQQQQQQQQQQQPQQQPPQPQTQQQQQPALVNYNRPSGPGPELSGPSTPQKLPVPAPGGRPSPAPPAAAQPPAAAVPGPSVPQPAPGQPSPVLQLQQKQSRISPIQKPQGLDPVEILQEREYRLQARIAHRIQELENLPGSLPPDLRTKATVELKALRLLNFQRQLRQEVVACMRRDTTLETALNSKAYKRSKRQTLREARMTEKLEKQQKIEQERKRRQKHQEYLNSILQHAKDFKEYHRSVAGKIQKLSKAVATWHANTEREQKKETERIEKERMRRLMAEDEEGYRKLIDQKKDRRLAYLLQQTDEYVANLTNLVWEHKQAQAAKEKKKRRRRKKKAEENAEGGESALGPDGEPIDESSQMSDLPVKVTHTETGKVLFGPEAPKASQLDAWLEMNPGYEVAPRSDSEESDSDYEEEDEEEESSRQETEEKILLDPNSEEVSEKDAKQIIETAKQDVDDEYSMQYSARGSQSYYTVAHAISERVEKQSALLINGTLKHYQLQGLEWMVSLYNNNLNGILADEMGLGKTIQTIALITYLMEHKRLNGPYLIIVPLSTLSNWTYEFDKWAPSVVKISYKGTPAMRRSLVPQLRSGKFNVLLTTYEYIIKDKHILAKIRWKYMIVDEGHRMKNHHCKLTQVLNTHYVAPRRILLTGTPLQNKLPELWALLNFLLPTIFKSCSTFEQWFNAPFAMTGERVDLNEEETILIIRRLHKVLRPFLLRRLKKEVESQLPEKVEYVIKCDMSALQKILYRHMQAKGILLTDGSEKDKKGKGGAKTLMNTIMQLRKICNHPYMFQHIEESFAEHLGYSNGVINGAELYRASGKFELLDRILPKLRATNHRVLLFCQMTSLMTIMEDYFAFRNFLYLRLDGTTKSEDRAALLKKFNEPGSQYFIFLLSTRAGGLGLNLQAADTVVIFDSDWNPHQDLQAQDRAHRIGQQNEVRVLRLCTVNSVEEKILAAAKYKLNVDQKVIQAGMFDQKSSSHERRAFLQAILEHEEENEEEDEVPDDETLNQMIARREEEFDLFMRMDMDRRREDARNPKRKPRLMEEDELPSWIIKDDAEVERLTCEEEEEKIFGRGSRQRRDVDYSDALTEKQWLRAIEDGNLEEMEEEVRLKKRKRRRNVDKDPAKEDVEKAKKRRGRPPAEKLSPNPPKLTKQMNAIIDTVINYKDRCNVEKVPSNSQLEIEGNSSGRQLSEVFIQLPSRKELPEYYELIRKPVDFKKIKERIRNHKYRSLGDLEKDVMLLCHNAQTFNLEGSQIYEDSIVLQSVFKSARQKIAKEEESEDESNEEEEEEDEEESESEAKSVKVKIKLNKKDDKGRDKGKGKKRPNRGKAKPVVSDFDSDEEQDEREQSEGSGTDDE
BRG-1, sequence (P51532 whole entry): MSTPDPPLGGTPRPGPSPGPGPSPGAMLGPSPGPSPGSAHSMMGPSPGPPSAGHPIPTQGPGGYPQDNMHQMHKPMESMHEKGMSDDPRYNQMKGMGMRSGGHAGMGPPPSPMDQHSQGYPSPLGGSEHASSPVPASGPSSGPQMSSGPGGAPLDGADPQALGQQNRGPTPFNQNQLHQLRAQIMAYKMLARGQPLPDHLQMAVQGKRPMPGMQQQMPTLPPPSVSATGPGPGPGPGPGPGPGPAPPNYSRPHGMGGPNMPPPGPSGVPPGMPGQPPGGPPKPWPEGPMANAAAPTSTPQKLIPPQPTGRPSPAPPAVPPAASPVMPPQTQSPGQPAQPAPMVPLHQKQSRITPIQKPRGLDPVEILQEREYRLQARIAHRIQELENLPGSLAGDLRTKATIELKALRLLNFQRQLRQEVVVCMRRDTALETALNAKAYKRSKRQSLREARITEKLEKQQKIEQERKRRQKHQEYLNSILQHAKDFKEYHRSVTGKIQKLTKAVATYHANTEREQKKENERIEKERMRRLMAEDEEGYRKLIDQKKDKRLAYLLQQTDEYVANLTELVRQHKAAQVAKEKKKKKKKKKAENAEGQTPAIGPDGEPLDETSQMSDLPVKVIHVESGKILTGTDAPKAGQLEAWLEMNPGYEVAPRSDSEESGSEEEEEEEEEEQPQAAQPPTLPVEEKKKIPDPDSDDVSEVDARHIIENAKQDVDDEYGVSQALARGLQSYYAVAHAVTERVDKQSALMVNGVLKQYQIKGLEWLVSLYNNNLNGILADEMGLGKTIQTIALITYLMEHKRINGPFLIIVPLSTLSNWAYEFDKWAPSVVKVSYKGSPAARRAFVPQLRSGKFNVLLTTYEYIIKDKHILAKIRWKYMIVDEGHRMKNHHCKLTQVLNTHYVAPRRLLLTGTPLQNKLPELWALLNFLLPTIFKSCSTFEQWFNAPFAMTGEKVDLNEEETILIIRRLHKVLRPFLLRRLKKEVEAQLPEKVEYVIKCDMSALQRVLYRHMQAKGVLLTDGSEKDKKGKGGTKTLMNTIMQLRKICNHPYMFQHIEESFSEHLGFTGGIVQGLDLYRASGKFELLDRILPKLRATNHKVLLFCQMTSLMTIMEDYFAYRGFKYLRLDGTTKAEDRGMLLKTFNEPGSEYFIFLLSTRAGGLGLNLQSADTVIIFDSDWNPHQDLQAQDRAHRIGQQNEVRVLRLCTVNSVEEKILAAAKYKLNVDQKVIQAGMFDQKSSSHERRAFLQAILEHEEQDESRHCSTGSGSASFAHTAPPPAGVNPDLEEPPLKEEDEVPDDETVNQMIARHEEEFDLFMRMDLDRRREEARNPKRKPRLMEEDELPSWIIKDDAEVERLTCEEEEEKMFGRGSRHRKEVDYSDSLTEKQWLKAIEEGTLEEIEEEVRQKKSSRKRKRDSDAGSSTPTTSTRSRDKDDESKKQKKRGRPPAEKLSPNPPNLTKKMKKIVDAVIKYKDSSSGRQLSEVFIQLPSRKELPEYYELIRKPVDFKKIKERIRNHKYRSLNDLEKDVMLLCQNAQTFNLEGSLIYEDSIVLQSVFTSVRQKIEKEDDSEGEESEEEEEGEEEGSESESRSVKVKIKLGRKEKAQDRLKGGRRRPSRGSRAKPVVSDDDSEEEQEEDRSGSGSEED

`Cc1cc(C(=O)NCC(=O)Nc2nc(-c3cccc(-c4ccncc4)c3)cs2)cc(C(C)(C)C#N)c1C` [Compound 75, 3-(2-cyanopropan-2-yl)-4,5-dimethyl-N-(2-oxo-2-((4-(3-(pyridin-4-yl)phenyl)thiazol-2-yl)amino)ethyl)benzamide]: at BRM, the “BRM Max % Inhibition” value is on record as over 80% and the IC50 was in the range of 0.1 to 1 µM. On BRG-1, the IC50 was over 5 µM and the Emax is under 30%.
In the case of `C[C@@H]1CN(c2cccc(-c3csc(NC(=O)CNC(=O)c4ccc5c(c4)[C@@](C)(O)COC5)n3)c2)C[C@H](C)O1` [Compound 437, (R)-N-(2-((4-(3-((cis)-2,6-dimethylmorpholino)phenyl)thiazol-2-yl)amino)-2-oxoethyl)-4-hydroxy-4-methylisochromane-6-carboxamide], on BRM (30 nM BRM, 400 μM ATP), the “BRM Max % Inhibition” value is given as over 95% and the IC50 was under 0.1 µM. On BRG-1 (30 nM BRG-1, 400 μM ATP), the IC50 fell in the range of 0.1 to 1 µM and the Emax was over 95%.
With `CC1(CO)CCc2ccc(C(=O)NCC(=O)Nc3nc(-c4cccc(-c5ccncc5)c4)cs3)cc21` (stereo not shown) [Compound 102], at BRM, the “BRM Max % Inhibition” value is on record as over 95% and the IC50 is under 0.1 µM. Besides, on BRG-1, the IC50 was in the range of 0.1 to 1 µM and the Emax is over 80%.
On the same counts, the results for `Cn1ccc2ccc(-c3csc(NC(=O)CNC(=O)c4ccc5c(c4)[C@](C)(F)COC5)n3)cc2c1=O` [Compound 389, (S)-4-fluoro-4-methyl-N-(2-((4-(2-methyl-1-oxo-1,2-dihydroisoquinolin-7-yl)thiazol-2-yl)amino)-2-oxoethyl)isochromane-6-carboxamide] are over 95%, under 0.1 µM, under 0.1 µM and over 95%.
As for `COC[C@H](NC(=O)c1ccnc(C(C)(C)C)c1)C(=O)Nc1nc(-c2cccc(N3C[C@@H](C)O[C@@H](C)C3)c2)cs1` [Compound 436, 2-(tert-butyl)-N-((S)-1-((4-(3-((cis)-2,6-dimethylmorpholino)phenyl)thiazol-2-yl)amino)-3-methoxy-1-oxopropan-2-yl)isonicotinamide], at BRM (30 nM BRM, 400 μM ATP), the “BRM Max % Inhibition” value is listed as over 90% and the half-inhibitory concentration (IC50) is 0.1 to 1 µM. In addition, on BRG-1 (30 nM BRG-1, 400 μM ATP), the half-maximal inhibitory concentration (IC50) fell in the range of 1 to 5 µM and the Emax was over 90%.
Take `C[C@@H]1CN(c2cccc(-c3csc(NC(=O)CNC(=O)c4ccc5c(c4)[C@@](F)(C#N)COC5)n3)n2)C[C@H](C)O1` (single isomer, unassigned) [Compound 299]: at BRM, the “BRM Max % Inhibition” value is given as over 95% and the half-maximal inhibitory concentration (IC50) is under 0.1 µM. Also, on BRG-1, the IC50 was 0.1 to 1 µM and the Emax was over 95%.
The corresponding values for `C[C@@H]1CN(c2cccc(-c3csc(NC(=O)CNC(=O)c4cccc(C5(C(F)F)CCCO5)c4)n3)c2)C[C@H](C)O1` (stereo partly drawn) [Compound 306, 3-(2-(difluoromethyl)tetrahydrofuran-2-yl)-N-(2-((4-(3-((cis)-2,6-dimethylmorpholino)phenyl)thiazol-2-yl)amino)-2-oxoethyl)benzamide] are over 95%, 0.1 to 1 µM, 1 to 5 µM and over 95%.
On the same counts, the results for `C[C@@H]1CN(c2cccc(-c3csc(NC(=O)CNC(=O)c4ccc(Cl)c(C(C)(C)CO)c4)n3)n2)C[C@H](C)O1` [Compound 241, 4-chloro-N-[2-[[4-[6-[(cis)-2,6-dimethylmorpholin-4-yl]-2-pyridyl]thiazol-2-yl]amino]-2-oxo-ethyl]-3-(2-hydroxy-1,1-dimethyl-ethyl)benzamide] are over 95%, under 0.1 µM, 0.1 to 1 µM and over 90%.
For the compound `C[C@@]1(F)COCc2ccc(C(=O)NCC(=O)Nc3nc(-c4ccnc(C5(O)CC5)c4)cs3)cc21` [Compound 330, (S)-4-fluoro-N-(2-((4-(2-(1-hydroxycyclopropyl)pyridin-4-yl)thiazol-2-yl)amino)-2-oxoethyl)-4-methylisochromane-6-carboxamide], at BRM, the “BRM Max % Inhibition” value is on record as over 95% and the IC50 was under 0.1 µM. Also, at BRG-1, the IC50 lay in the range of 0.1 to 1 µM and the Emax is over 95%.
The corresponding values for `C[C@@H]1CN(c2cccc(-c3csc(NC(=O)CNC(=O)c4ccc5c(c4)[C@](C)(C#N)CN5C)n3)c2)C[C@H](C)O1` [Compound 369, (S)-3-cyano-N-(2-((4-(3-((cis)-2,6-dimethylmorpholino)phenyl)thiazol-2-yl)amino)-2-oxoethyl)-1,3-dimethylindoline-5-carboxamide] are over 95%, under 0.1 µM, under 0.1 µM and over 95%.
The corresponding values for `C[C@@H]1CN(c2cccc(-c3csc(NC(=O)CNC(=O)c4ccc5c(c4)[C@](C)(F)COC5)n3)n2)C[C@H](C)O1` [Compound 409, (S)-N-(2-((4-(6-((cis)-2,6-dimethylmorpholino)pyridin-2-yl)thiazol-2-yl)amino)-2-oxoethyl)-4-fluoro-4-methylisochromane-6-carboxamide] are over 95%, under 0.1 µM, under 0.1 µM and over 95%.
On the same counts, the results for `Cc1nccc(-c2cccc(-c3csc(NC(=O)CNC(=O)c4cccc(S(=O)(=O)C(C)C)c4)n3)c2)n1` [Compound 13, 3-(isopropylsulfonyl)-N-(2-((4-(3-(2-methylpyrimidin-4-yl)phenyl)thiazol-2-yl)amino)-2-oxoethyl)benzamide] are over 95%, under 0.1 µM, under 0.1 µM and over 95%.
For the compound `C[C@@H]1CN(c2cccc(-c3csc(NC(=O)CNC(=O)c4cccc5c4OCC[C@@]5(C)C#N)n3)c2)C[C@H](C)O1` [Compound 146, (R)-4-cyano-N-(2-((4-(3-((cis)-2,6-dimethylmorpholino)phenyl)thiazol-2-yl)amino)-2-oxoethyl)-4-methylchroman-8-carboxamide], at BRM, the “BRM Max % Inhibition” value was over 70% and the IC50 lay in the range of 0.1 to 1 µM. For the same compound, on BRG-1, the 50% inhibitory concentration (IC50) is over 5 µM and the Emax is over 30%.
On the same counts, the results for `C[C@@H]1CN(c2cccc(-c3csc(NC(=O)CNC(=O)c4cccc([C@]5(F)C[C@@](C)(O)C5)c4)n3)c2)C[C@H](C)O1` [Compound 317, N-(2-((4-(3-((cis)-2,6-dimethylmorpholino)phenyl)thiazol-2-yl)amino)-2-oxoethyl)-3-((1s,3s)-1-fluoro-3-hydroxy-3-methylcyclobutyl)benzamide] are over 95%, under 0.1 µM, 1 to 5 µM and over 95%.
For `Cc1ccc(C(=O)NCC(=O)Nc2nc(-c3cccc(-c4ccn(C)n4)c3)cs2)cc1S(=O)(=O)C(C)C` [Compound 46, 3-(isopropylsulfonyl)-4-methyl-N-(2-((4-(3-(1-methyl-1H-pyrazol-3-yl)phenyl)thiazol-2-yl)amino)-2-oxoethyl)benzamide], at BRM, the “BRM Max % Inhibition” value was over 95% and the IC50 was 0.1 to 1 µM. In addition, on BRG-1, the IC50 lay in the range of 1 to 5 µM and the Emax was over 60%.
The corresponding values for `C[C@@H]1CN(c2cccc(-c3csc(NC(=O)CNC(=O)c4cccc([C@]5(C)COC[C@H]5O)c4)n3)n2)C[C@H](C)O1` [Compound 408] are over 90%, 0.1 to 1 µM, 1 to 5 µM and over 90%.
On the same counts, the results for `CC(C)(CN)c1cccc(C(=O)NCC(=O)Nc2nc(-c3cccc(-c4ccnc(N)c4)c3)cs2)c1` [Compound 59, 3-(1-amino-2-methylpropan-2-yl)-N-(2-((4-(3-(2-aminopyridin-4-yl)phenyl)thiazol-2-yl)amino)-2-oxoethyl)benzamide] are over 95%, under 0.1 µM, 0.1 to 1 µM and over 80%.
The corresponding values for `CCOC(=O)N1CCC[C@H](c2csc(NC(=O)CNC(=O)c3ccc4c(c3)C(C)(F)COC4)n2)C1` (stereo in doubt) [Compound 284, ethyl (S)-3-(2-(2-((R)-4-fluoro-4-methylisochromane-6-carboxamido)acetamido)thiazol-4-yl)piperidine-1-carboxylate] are over 95%, under 0.1 µM, 0.1 to 1 µM and over 95%.
Take `C[C@@H]1CN(c2cccc(-c3csc(NC(=O)CNC(=O)c4cccc(C5(C#N)COC5)c4)n3)c2)C[C@H](C)O1` [Compound 418, 3-(3-cyanooxetan-3-yl)-N-(2-((4-(3-((cis)-2,6-dimethylmorpholino)phenyl)thiazol-2-yl)amino)-2-oxoethyl)benzamide]: at BRM (30 nM BRM, 400 μM ATP), the “BRM Max % Inhibition” value is over 95% and the IC50 is under 0.1 µM. On BRG-1 (30 nM BRG-1, 400 μM ATP), the half-maximal inhibitory concentration (IC50) lay in the range of 0.1 to 1 µM and the Emax was over 95%.

For orientation: IC50 means the concentration that inhibits the measured activity by half.
